Patent US12180226B2, “Spirotricycle RIPK1 inhibitors and methods of uses thereof” (Merck Sharp & Dohme LLC, priority 2021, dated 2024)
Structures can show the parent of a compound that is named as a salt.

Each compound was assayed against RIPK1 (recombinant GST-RIPK1 kinase domain, residues 1-327) (Homo sapiens (Human), UniProt Q13546) (assay: RIPK1-ADP-Glo Enzymatic Assay). Conditions: ADP-Glo; 25 nM GST-RIPK1, 300 μM ATP; assay lower limit ~25 nM; read-out: RIPK1 V0 Ec50.
Sequence of RIPK1 (recombinant GST-RIPK1 kinase domain, residues 1-327) (Q13546 1-327): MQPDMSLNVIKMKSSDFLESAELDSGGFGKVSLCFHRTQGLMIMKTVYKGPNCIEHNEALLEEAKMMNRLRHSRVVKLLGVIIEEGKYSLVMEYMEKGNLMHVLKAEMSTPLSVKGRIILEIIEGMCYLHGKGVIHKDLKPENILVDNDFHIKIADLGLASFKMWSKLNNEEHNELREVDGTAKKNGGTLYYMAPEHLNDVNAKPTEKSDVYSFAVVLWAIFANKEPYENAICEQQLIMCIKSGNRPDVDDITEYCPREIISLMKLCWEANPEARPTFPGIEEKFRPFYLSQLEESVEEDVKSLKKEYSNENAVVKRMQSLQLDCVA
Type: biochemical
Procedure: RIPK1-ADP-Glo Enzymatic Assay
The enzymatic activity of RIPK1 is measured using an assay derived from ADP-Glo kit (TMPromega), which provides a luminescent-based ADP detection system. Specifically, the ADP generated by RIPK1 kinase is proportionally detected as luminescent signals in a homogenous fashion. In this context, the assessment of the inhibitory effect of small molecules (EC50) is measured by the effectiveness of the compounds to inhibit the ATP to ADP conversion by RIPK1.
In this assay, the potency (EC50) of each compound was determined from a ten-point (1:3 serial dilution; top compound concentration of 100000 nM) titration curve using the following outlined procedure. The assay bottom or lower limit of confidence is ˜25 nM. To each well of a white ProxiPlus 384 well-plate, 30 nL of compound (1% DMSO in final assay volume of 3 μL) was dispensed, followed by the addition of 2 μL of 1×assay buffer (25 mM Hepes 7.3, 20 mM MgCl2, 50 mM NaCl, 1 mM DTT, 0.005% Tween20, and 0.02% BSA) containing 37.5 nM of GST-RIPK1 (recombinant GST-RIPK1 kinase domain (residues 1-327) enzyme produced from baculovirus-transfected Sf21 cells: MW=62 kDa). Plates were placed in an ambient temperature humidified chamber for a 30-minute pre-incubation with compound. Subsequently, each reaction was initiated by the addition of 1 μL 1×assay buffer containing 900 μM ATP and […] dephosphorylated-MBP substrate. The final reaction in each well of 3 μL consists of 25 nM of GST-RIPK1, 300 μM ATP, and 3 μM dephosphorylated-MBP. Kinase reactions were allowed to proceed for 150 minutes prior to adding ADP-Glo reagents per Promega's outlined kit protocol. Dose-response curves were generated by plotting percent effect (% product conversion; Y-axis) vs. Log10 compound concentrations (X-axis). EC50 values were calculated using a non-linear regression, four-parameters sigmoidal dose-response model.
Compound O=C(c1ccc(F)cc1F)N1CCC2(CC1)O[C@@H]1CC[C@@H](c3cccc(F)c3)N1C2=O [Example 6.114, (5′S,7a′R)-1-(2,4-difluorobenzene-1-carbonyl)-5′-(3-fluoro-phenyl)tetrahydro-3′H-spiro[piperidine-4,2′-pyrrolo[2,1-b] [1,3]oxazol]-3′-one] has an EC50 of under 0.025 µM.
O=C(c1ccnc2ncnn12)N1CCC2(CC1)O[C@@H]1CC[C@@H](c3cc(F)cc(F)c3)N1C2=O [Example 6.76, (5′S,7a′R)-5′-(3,5-difluorophenyl)-1-([1,2,4]triazolo[1,5-a]pyrimidine-7-car-bonyl)tetrahydro-3′H-spiro[piperidine-4,2′-pyrrolo[2,1-b] [1,3]oxazol]-3′-one] was tested, and the EC50 was 0.182 µM.
Compound N#Cc1cc(N2CCC3(O[C@@H]4CC[C@@H](c5ccccc5)N4C3=O)C(F)C2)ncn1 (single isomer, unassigned) [Example 4.94, 6-((3[R or S],4[S or R], 5′S,7a′R)-3-fluoro-3′-oxo-5′-phenyltetrahydro-3′H-spiro[piperidine-4,2′-pyrrolo[2,1-b]oxazol]-1-yl)pyrimidine-4-carbonitrile] has an EC50 of 0.154 µM.
For C#Cc1ccc(N2CCC3(CC2)O[C@@H]2CC[C@@H](c4ccccc4)N2C3=O)n2ncnc12 [Example 21.24, (5′S,7a′R)-1-(8-ethynyl[1,2,4]triazolo [1,5-a]pyridin-5-yl)-5′-phenyltetrahydro-3′H-spiro[piperidine-4,2′-pyrrolo[2,1-b][1,3]oxazol]-3′-one], the EC50 was under 0.025 µM.
With O=C1N2[C@@H](CC[C@H]2c2ccccc2F)OC12CN(c1cccc3ncnn13)C2 [Example 13.20, (5′S,7a′R)-1-([1,2,4]triazolo[1,5-a]pyridin-5-yl)-5′-(2-fluorophenyl)tetrahydro-3′H-spiro[azetidine-3,2′-pyrrolo[2,1-b]oxazol]-3′-one, TFA salt] the EC50 was 0.0249 µM.
With N#Cc1ccc(C(=O)N2CCC3(CC2)O[C@@H]2CC[C@@H](c4cc(F)cc(F)c4)N2C3=O)c(Cl)c1 [Example 5.22, 3-chloro-4-((5′S,7a′R)-5′-(3,5-difluorophenyl)-3′-oxotetrahydro-3′H-spiro [piperidine-4,2′-pyrrolo-[2,1-b]oxazole]-1-carbon-yl)benzonitrile] the EC50 was 0.392 µM.
With O=C1N2[C@@H](CC[C@H]2c2cc(F)cc(F)c2)OC12CCN(c1ccc(Br)c3ccnn13)CC2 [Example 13.6, (5′S,7a′R)-1-(4-bromopyrazolo[1,5-a]pyridin-7-yl)-5′-(3,5-difluorophenyl)tetrahydro-3′H-spiro[piperidine-4,2′-pyrrolo[2,1-b]oxazol]-3′-one, TFA salt] the EC50 was under 0.025 µM.
O=C(c1ccncn1)N1CCC2(CC1)O[C@@H]1CC[C@@H](c3cc(F)cc(F)c3)N1C2=O [Example 6.63, (5′S,7a′R)-5′-(3,5-difluorophenyl)-1-(pyrimidine-4-carbon-yl)tetrahydro-3′H-spiro[piperidine-4,2′-pyrrolo[2,1-b][1,3]-oxazol]-3′-one] gave an EC50 of 0.0579 µM.
N#Cc1cncc([C@@H]2CC[C@H]3OC4(CCN(c5ccnc6c(F)cnn56)CC4)C(=O)N32)c1 [Example 4.127, 5-[(5′S,7a′R)-1-(3-fluoropyrazolo[1,5-a]pyrimidin-7-yl)-3′-oxotetrahydro-3′H-spiro[piperidine-4,2′-pyrrolo[2,1-b] [1,3]oxazol]-5′-yl]pyridine-3-carbonitrile] gave an EC50 of under 0.025 µM.
Cc1cncc(C(=O)N2CCC3(CC2)O[C@@H]2CC[C@@H](c4cc(F)cc(F)c4)N2C3=O)n1 [Example 6.4, (5′S,7a′R)-5′-(3,5-difluorophenyl)-1-(6-methylpyrazine-2-carbonyl)tetrahydro-3′H-spiro[piperidine-4,2′-pyrrolo[2,1-b] [1,3]oxazol]-3′-one] showed an EC50 of 0.76 µM.
For Cc1ccn(-c2cccc(N3CCC4(CC3)O[C@@H]3CC[C@@H](c5ccccc5)N3C4=O)n2)n1 [Example 4.263, (5′S,7a′R)-1-[6-(3-methyl-1H-pyrazol-1-yl)pyridin-2-yl]-5′-phenyltetrahydro-3′H-spiro[piperidine-4,2′-pyrrolo[2,1-b] [1,3]oxazol]-3′-one], the EC50 was 0.0262 µM.
For O=C(c1nsnc1Cl)N1CCC2(CC1)O[C@@H]1CC[C@@H](c3cc(F)cc(F)c3)N1C2=O [Example 6.19, (5′S,7a′R)-1-(4-chloro-1,2,5-thiadi-azole-3-carbonyl)-5′-(3,5-difluorophenyl)-tetrahydro-3′H-spiro [piperidine-4,2′-pyrrolo[2,1-b][1,3]oxazol]-3′-one], the EC50 was under 0.025 µM.
Work on COc1cc(N2CCC3(CC2)O[C@@H]2CC[C@@H](c4cc(F)cc(F)c4)N2C3=O)ncc1C#N [Example 4.43, 6-[(5′S,7a′R)-5′-(3,5-difluorophenyl)-3′-oxotetrahydro-1H,3′H-spiro[piperidine-4,2′-pyrrolo[2,1-b] [1,3]oxazol]-1-yl]-4-methoxypyridine-3-carbonitrile] yielded an EC50 of under 0.025 µM.
With COc1ncccc1C(=O)N1CCC2(CC1)O[C@@H]1CC[C@@H](c3cc(F)cc(F)c3)N1C2=O [Example 6.18, (5′S,7a′R)-5′-(3,5-difluorophenyl)-1-(2-methoxypyridine-3-carbonyl)tetrahydro-3′H-spiro[piperidine-4,2′-pyrrolo[2,1-b] [1,3]oxazol]-3′-one] the EC50 was 0.154 µM.
In the case of N#Cc1cn[nH]c1C(=O)N1CCC2(CC1)O[C@@H]1CC[C@@H](c3cc(F)cc(F)c3)N1C2=O [Example 5.40, 5-((5′S,7a′R)-5′-(3,5-difluorophenyl)-3′-oxo-tetrahydro-3′H-spiro [piperidine-4,2′-pyrrolo-[2,1-b]oxazole]-1-carbon-yl)-1H-pyrazole-4-car-bonitrile], the EC50 is reported as 0.459 µM.
Compound O=C(c1cc(F)ccc1F)N1CCC2(CC1)O[C@@H]1CC[C@@H](c3ccccc3)N1C2=O [Example 1.11, (5′S,7a′R)-1-(2,5-difluorobenzene-1-carbonyl)-5′-phenyltetrahydro-3′H-spiro[piperidine-4,2′-pyrrolo[2,1-b] [1,3]oxazol]-3′-one] has an EC50 of under 0.025 µM.
With O=C1N2[C@@H](CC[C@H]2c2ccccc2)OC12CCN(c1ccc(-c3ncco3)cn1)CC2 [Example 21.16, (5′S,7a′R)-1-[5-(1,3-oxazol-2-yl)pyridin-2-yl]-5′-phenyltetrahydro-3′H-spiro[piperidine-4,2′-pyrrolo[2,1-b][1,3]oxazol]-3′-one] the EC50 was under 0.025 µM.
With O=C1N2[C@@H](CC[C@H]2c2ccccc2)OC12CN(c1ncnc3ccnn13)C2 [Example 4.137, (5′S,7a′R)-5′-phenyl-1-(pyrazolo[1,5-a] [1,3,5]triazin-4-yl)tetrahydro-3′H-spiro[azetidine-3,2′-pyrrolo[2,1-b] [1,3]oxazol]-3′-one] the EC50 was 0.235 µM.
With O=C(c1nc(N2CCC3(CC2)O[C@@H]2CC[C@@H](c4cc(F)cc(F)c4)N2C3=O)ncc1F)N1CC(F)C1 [Example 7.7, (5′S,7a′R)-5′-(3,5-difluorophenyl)-1-[5-fluoro-4-(3-fluoroazetidine-1-carbonyl)pyrimidin-2-yl]tetrahydro-3′H-spiro[piperidine-4,2′-pyrrolo[2,1-b][1,3]oxazol]-3′-one] the EC50 was under 0.025 µM.
For CC(F)c1cc(N2CCC3(CC2)O[C@@H]2CC[C@@H](c4ccccc4)N2C3=O)ncn1 (stereo partly drawn) [Example 4.215, (5′S,7a′R)-1-[6-(1-fluoroethyl)pyrimidin-4-yl]-5′-phenyltetrahydro-3′H-spiro[piperidine-4,2′-pyrrolo[2,1-b] [1,3]oxazol]-3′-one], the EC50 was 0.552 µM.
CC1CN(c2cccc3ncnn23)CCC12O[C@@H]1CC[C@@H](c3ccccc3)N1C2=O (stereo partly drawn) [Example 4.244, (4R,5′S,7a′R)-3-methyl-5′-phenyl-1-([1,2,4]triazolo[1,5-a]pyridin-5-yl)tetrahydro-3′H-spiro[piperidine-4,2′-pyrrolo[2,1-b] [1,3]oxazol]-3′-one] gave an EC50 of under 0.025 µM.
Work on O=C1N2[C@@H](CC[C@H]2c2cc(F)cc(F)c2)OC12CCN(c1ncc(F)c(C(F)F)n1)CC2 [Example 4.66, (5′S,7a′R)-1-[4-(difluoromethyl)-5-fluoropyrimidin-2-yl]-5′-(3,5-difluorophenyl)tetrahydro-3′H-spiro[piperidine-4,2′-pyrrolo[2,1-b] [1,3]oxazol]-3′-one] yielded an EC50 of 0.0384 µM.
For O=C1N2[C@@H](CC[C@H]2c2ccccc2)OC12CCN(c1cc(OC3CCC3)ccn1)CC2 [Example 11.20, (5′S,7a′R)-1-[4-(cyclobutyloxy)pyridin-2-yl]-5′-phenyltetrahydro-3′H-spiro[piperidine-4,2′-pyrrolo[2,1-b][1,3]oxazol]-3′-one], the EC50 was 0.0269 µM.
For CC1CN(c2ccnc3ccnn23)CCC12O[C@@H]1CC[C@@H](c3ccccc3)N1C2=O (stereo partly drawn) [Example 4.246, (4R,5′S,7a′R)-3-methyl-5′-phenyl-1-(pyrazolo[1,5-a]pyrimidin-7-yl)tetrahydro-3′H-spiro[piperidine-4,2′-pyrrolo[2,1-b] [1,3]oxazol]-3′-one], the EC50 was under 0.025 µM.
